Assays:
Assay type in all cases: in vivo
[1] = tested on: Galium (catchweed bedstraw, Galium aparine); assay: Test C preemergence; details: for Plant response rating, Galium: scale 0 to 100, 0 no effect, 100 complete control
Outline: (§1)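 Herbicidal effect, applied preemergence to sown seeds or postemergence to 1- to 4-leaf plants, was scored visually 13 to 15 d after application, 0 to 100 versus controls.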

[2] = tested on: barnyardgrass (Echinochloa crus-galli); assay: Test C preemergence; details: for Plant response rating, Barnyardgrass: scale 0 to 100, 0 no effect, 100 complete control
Outline: as §1

[3] = tested on: blackgrass (Alopecurus myosuroides); assay: Test C preemergence; details: for Plant response rating, Blackgrass: scale 0 to 100, 0 no effect, 100 complete control
Outline: as §1

[4] = tested on: corn (Zea mays); assay: Test C preemergence; details: for Plant response rating, Corn: scale 0 to 100, 0 no effect, 100 complete control
Outline: as §1

[5] = tested on: crabgrass, large (large crabgrass, Digitaria sanguinalis); assay: Test C preemergence; details: for Plant response rating, Crabgrass, Large: scale 0 to 100, 0 no effect, 100 complete control
Outline: as §1

[6] = tested on: johnsongrass (Sorghum halepense); assay: Test C preemergence; details: for Plant response rating, Johnsongrass: scale 0 to 100, 0 no effect, 100 complete control
Outline: as §1

[7] = tested on: lambsquarters (Chenopodium album); assay: Test C preemergence; details: for Plant response rating, Lambsquarters: scale 0 to 100, 0 no effect, 100 complete control
Outline: as §1

[8] = tested on: morningglory (Ipomoea coccinea); assay: Test C preemergence; details: for Plant response rating, Morningglory: scale 0 to 100, 0 no effect, 100 complete control
Outline: as §1

[9] = tested on: nutsedge, yellow (yellow nutsedge, Cyperus esculentus); assay: Test C preemergence; details: for Plant response rating, Nutsedge, Yellow: scale 0 to 100, 0 no effect, 100 complete control
Outline: as §1

[10] = tested on: oilseed rape (Brassica napus); assay: Test C preemergence; details: for Plant response rating, Oilseed Rape: scale 0 to 100, 0 no effect, 100 complete control
Outline: as §1

[11] = tested on: pigweed (Amaranthus retroflexus); assay: Test C preemergence; details: for Plant response rating, Pigweed: scale 0 to 100, 0 no effect, 100 complete control
Outline: as §1

[12] = tested on: ragweed (common ragweed, Ambrosia elatior); assay: Test C preemergence; details: for Plant response rating, Ragweed: scale 0 to 100, 0 no effect, 100 complete control
Outline: as §1

[13] = tested on: ryegrass, Italian (Italian ryegrass, Lolium multiflorum); assay: Test C preemergence; details: for Plant response rating, Ryegrass, Italian: scale 0 to 100, 0 no effect, 100 complete control
Outline: as §1

[14] = tested on: soybean (Glycine max); assay: Test C preemergence
Outline: as §1

[15] = tested on: velvetleaf (Abutilon theophrasti); assay: Test C preemergence; details: for Plant response rating, Velvetleaf: scale 0 to 100, 0 no effect, 100 complete control
Outline: as §1

[16] = tested on: waterhemp (common waterhemp, Amaranthus rudis); assay: Test C preemergence; details: for Plant response rating, Waterhemp: scale 0 to 100, 0 no effect, 100 complete control
Outline: as §1

[17] = tested on: wheat (winter wheat, Triticum aestivum); assay: Test C preemergence; details: for Plant response rating, Wheat: scale 0 to 100, 0 no effect, 100 complete control
Outline: as §1

[18] = tested on: ducksalad (Heteranthera limosa); assay: Test C flooded paddy test; details: Flood; for Plant response rating (scale of 0 to 100), Ducksalad: 0 is no effect, 100 is complete control
Outline: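 Test compounds were dosed straight into the flood water of pots holding 2-leaf-stage plants, with water kept 3 cm above the soil. Greenhouse plants were scored visually against controls after 13 to 15 d, from 0 (no effect) to 100 (complete control).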

[19] = 31 g ai/ha, 0 is no effect, 100 is complete control

`Cc1ccc(C2CN(C)C(=O)C2C(=O)Nc2ccccc2F)cc1F` (stereo not shown) [Compound 465] was tested, and the “Plant response rating (scale of 0 to 100), Galium” value [1, 19] was 80, the “Plant response rating, Galium” value ([1]; 62 g ai/ha) was 85 and the “Plant response rating, Galium” value ([1]; 125 g ai/ha) was 90. The “Plant response rating, Galium” value ([1]; 250 g ai/ha) was 98, the “Plant response rating (scale of 0 to 100), Barnyardgrass” value [2, 19] was 90 and the “Plant response rating, Barnyardgrass” value ([2]; 62 g ai/ha) was 95. For the same molecule, the “Plant response rating, Barnyardgrass” value ([2]; 125 g ai/ha) was 98, the “Plant response rating, Barnyardgrass” value ([2]; 250 g ai/ha) was 100 and the “Plant response rating (scale of 0 to 100), Blackgrass” value [3, 19] was 20. For the same molecule, the “Plant response rating, Blackgrass” value ([3]; 62 g ai/ha) was 50, the “Plant response rating, Blackgrass” value ([3]; 125 g ai/ha) was 80 and the “Plant response rating, Blackgrass” value ([3]; 250 g ai/ha) was 90. For the same molecule, the “Plant response rating (scale of 0 to 100), Corn” value [4, 19] was 40, the “Plant response rating, Corn” value ([4]; 62 g ai/ha) was 55 and the “Plant response rating, Corn” value ([4]; 125 g ai/ha) was 65. For the same molecule, the “Plant response rating, Corn” value ([4]; 250 g ai/ha) was 90, the “Plant response rating (scale of 0 to 100), Crabgrass, Large” value [5, 19] was 100 and the “Plant response rating, Crabgrass, Large” value ([5]; 62 g ai/ha) was 100. For the same molecule, the “Plant response rating, Crabgrass, Large” value ([5]; 125 g ai/ha) was 100, the “Plant response rating, Crabgrass, Large” value ([5]; 250 g ai/ha) was 100 and the “Plant response rating (scale of 0 to 100), Johnsongrass” value [6, 19] was 10. The “Plant response rating, Johnsongrass” value ([6]; 62 g ai/ha) was 65, the “Plant response rating, Johnsongrass” value ([6]; 125 g ai/ha) was 80 and the “Plant response rating, Johnsongrass” value ([6]; 250 g ai/ha) was 85. For the same molecule, the “Plant response rating (scale of 0 to 100), Lambsquarters” value [7, 19] was 75, the “Plant response rating, Lambsquarters” value ([7]; 62 g ai/ha) was 75 and the “Plant response rating, Lambsquarters” value ([7]; 125 g ai/ha) was 85. The “Plant response rating, Lambsquarters” value ([7]; 250 g ai/ha) was 100, the “Plant response rating (scale of 0 to 100), Morningglory” value [8, 19] was 5 and the “Plant response rating, Morningglory” value ([8]; 62 g ai/ha) was 20. The “Plant response rating, Morningglory” value ([8]; 125 g ai/ha) was 25, the “Plant response rating, Morningglory” value ([8]; 250 g ai/ha) was 50 and the “Plant response rating (scale of 0 to 100), Nutsedge, Yellow” value [9, 19] was 0. The “Plant response rating, Nutsedge, Yellow” value ([9]; 62 g ai/ha) was 0, the “Plant response rating, Nutsedge, Yellow” value ([9]; 125 g ai/ha) was 0 and the “Plant response rating, Nutsedge, Yellow” value ([9]; 250 g ai/ha) was 0. For the same molecule, the “Plant response rating (scale of 0 to 100), Oilseed Rape” value [10, 19] was 30, the “Plant response rating, Oilseed Rape” value ([10]; 62 g ai/ha) was 10 and the “Plant response rating, Oilseed Rape” value ([10]; 125 g ai/ha) was 85. For the same molecule, the “Plant response rating, Oilseed Rape” value ([10]; 250 g ai/ha) was 90, the “Plant response rating (scale of 0 to 100), Pigweed” value [11, 19] was 10 and the “Plant response rating, Pigweed” value ([11]; 62 g ai/ha) was 25. For the same molecule, the “Plant response rating, Pigweed” value ([11]; 125 g ai/ha) was 60, the “Plant response rating, Pigweed” value ([11]; 250 g ai/ha) was 55 and the “Plant response rating (scale of 0 to 100), Ragweed” value [12, 19] was 0. The “Plant response rating, Ragweed” value ([12]; 62 g ai/ha) was 60, the “Plant response rating, Ragweed” value ([12]; 125 g ai/ha) was 75 and the “Plant response rating, Ragweed” value ([12]; 250 g ai/ha) was 80. For the same molecule, the “Plant response rating (scale of 0 to 100), Ryegrass, Italian” value [13, 19] was 10, the “Plant response rating, Ryegrass, Italian” value ([13]; 62 g ai/ha) was 70 and the “Plant response rating, Ryegrass, Italian” value ([13]; 125 g ai/ha) was 65. For the same molecule, the “Plant response rating, Ryegrass, Italian” value ([13]; 250 g ai/ha) was 65, the “Plant response rating (scale of 0 to 100), Soybean” value [14, 19] was 5 and the “Plant response rating, Soybean” value ([14]; 250 g ai/ha, scale 0 to 100, 0 no effect, 100 complete control) was 15. For the same molecule, the “Plant response rating (scale of 0 to 100), Velvetleaf” value [15, 19] was 15, the “Plant response rating, Velvetleaf” value ([15]; 62 g ai/ha) was 5 and the “Plant response rating, Velvetleaf” value ([15]; 125 g ai/ha) was 55. The “Plant response rating, Velvetleaf” value ([15]; 250 g ai/ha) was 65, the “Plant response rating (scale of 0 to 100), Waterhemp” value [16, 19] was 60 and the “Plant response rating, Waterhemp” value ([16]; 62 g ai/ha) was 70. For the same molecule, the “Plant response rating, Waterhemp” value ([16]; 125 g ai/ha) was 80, the “Plant response rating, Waterhemp” value ([16]; 250 g ai/ha) was 80 and the “Plant response rating (scale of 0 to 100), Wheat” value [17, 19] was 20. The “Plant response rating, Wheat” value ([17]; 62 g ai/ha) was 70, the “Plant response rating, Wheat” value ([17]; 125 g ai/ha) was 80 and the “Plant response rating, Wheat” value ([17]; 250 g ai/ha) was 95. For the same molecule, the “Plant response rating, Ducksalad” value ([18]; 16 g ai/ha, scale 0 to 100 (0 no effect, 100 complete control), 13 to 15 d) was 0, the “Plant response rating (scale of 0 to 100), Ducksalad” value ([18]; 31 g ai/ha) was 45 and the “Plant response rating (scale of 0 to 100), Ducksalad” value ([18]; 62 g ai/ha) was 65. The “Plant response rating (scale of 0 to 100), Ducksalad” value ([18]; 125 g ai/ha) was 90.

Source: patent publication US12077503B2, “Substituted cyclic amides and their use as herbicides” (FMC CORPORATION, priority 2015, dated 2024)
